{
  "source": "paper PMC2995738",
  "about": "“In Vitro and In Vivo Anti-Inflammatory Activity of 17-O-Acetylacuminolide through the Inhibition of Cytokines, NF-κB Translocation and IKKβ Activity” (PLoS ONE, 2010)",
  "target": "T1, IKKβ (Homo sapiens, UniProt O14920)",
  "T1 construct": "gene IKBKB; Human, recombinant IKKβ",
  "T1 sequence (O14920 1-756)": "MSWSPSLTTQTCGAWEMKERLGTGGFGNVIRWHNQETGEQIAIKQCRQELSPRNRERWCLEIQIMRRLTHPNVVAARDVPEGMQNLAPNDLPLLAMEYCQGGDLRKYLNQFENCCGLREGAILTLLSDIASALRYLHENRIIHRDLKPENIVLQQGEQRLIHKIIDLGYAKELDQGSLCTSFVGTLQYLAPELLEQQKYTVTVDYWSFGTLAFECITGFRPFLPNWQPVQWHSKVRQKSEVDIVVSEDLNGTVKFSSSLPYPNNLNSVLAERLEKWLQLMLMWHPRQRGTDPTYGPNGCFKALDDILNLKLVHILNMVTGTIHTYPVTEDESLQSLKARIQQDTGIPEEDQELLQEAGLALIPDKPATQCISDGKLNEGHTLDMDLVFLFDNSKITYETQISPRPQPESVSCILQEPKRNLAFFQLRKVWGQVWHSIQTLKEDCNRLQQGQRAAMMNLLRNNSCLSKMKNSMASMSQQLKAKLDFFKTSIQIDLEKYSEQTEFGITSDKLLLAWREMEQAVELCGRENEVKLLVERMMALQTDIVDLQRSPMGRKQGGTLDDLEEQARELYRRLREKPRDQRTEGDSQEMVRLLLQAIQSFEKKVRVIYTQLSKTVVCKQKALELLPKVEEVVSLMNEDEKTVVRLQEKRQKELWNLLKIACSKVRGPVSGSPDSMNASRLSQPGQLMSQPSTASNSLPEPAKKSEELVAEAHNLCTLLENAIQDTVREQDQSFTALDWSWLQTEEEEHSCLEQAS",
  "test": "K-LISA IKKβ inhibitor screening kit (ELISA of GST-IκBα phosphorylation by recombinant IKKβ)",
  "assay_type": "biochemical",
  "data": [
    {"smiles": "CC(=O)OC[C@@]12CC[C@H]3C(C)(C)CCC[C@]3(C)[C@H]1C[C@@H](C1=CC(=O)O[C@H]1O)O2", "note": "[AA, (12S)-17-acetoxy-8a,12-epoxy-16(R)-hydroxylabd-13(14)Z-en-15,16-olide]", "values": [
      {"measurement": "EC50", "value": 13.2, "unit": "µM"}
    ]}
  ]
}
